According to ChEMBL document CHEMBL1201862, “PubChem BioAssay data set” (2004):
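Each compound was tested at five concentrations against cells in 96-well plates for 48 hours. At the GI50, growth is halved.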 Calls of active or inactive are those of the source. No stated cut-off is given here; in the data, active = GI50 up to about 1.1 µM and inactive = higher.

How the values were obtained:
Assay in all cases: NCI anticancer screen, dose series, 48 h
[1] = test system: NCI-H23
[2] = test system: KM12
[3] = test system: M14
[4] = test system: Hs-578T
[5] = test system: UACC-62
[6] = test system: NCI-H522
[7] = test system: SNB-19
[8] = test system: MDA-MB-435
[9] = test system: MOLT-4
[10] = test system: NCI/ADR-RES
[11] = test system: MCF7
[12] = test system: HOP-92
[13] = test system: HCT-116
[14] = test system: SW-620
[15] = test system: Malme-3M
[16] = test system: SK-MEL-28
[17] = test system: A549

## Brc1ccc(/N=N/N2CCCCC2)cc1
[1]
  GI50: 62.1 µM (inactive)
[2]
  GI50: 27 µM (inactive)
[3]
  GI50: 85.9 µM (inactive)
[4]
  GI50: 65.5 µM (inactive)
[5]
  GI50: 72.9 µM (inactive)
[6]
  GI50: 24 µM (inactive)
[7]
  GI50: > 100 µM (inactive)
[8]
  GI50: 34.3 µM (inactive)
[9]
  GI50: 19.9 µM (inactive)
[10]
  GI50: 51.3 µM (inactive)
[11]
  GI50: 35.5 µM (inactive)
[12]
  GI50: 33.6 µM (inactive)
[13]
  GI50: 34.2 µM (inactive)
[14]
  GI50: 52.7 µM (inactive)

## O=C(CCCN1CCC2(CC1)OC(=O)N(c1ccccc1)C2=O)c1ccccc1
[1]
  GI50: > 100 µM (inactive)
[2]
  GI50: > 100 µM (inactive)
[15]
  GI50: > 100 µM (inactive)
[3]
  GI50: > 100 µM (inactive)
[4]
  GI50: > 100 µM (inactive)
[16]
  GI50: > 100 µM (inactive)
[17]
  GI50: > 100 µM (inactive)
[5]
  GI50: > 100 µM (inactive)
[6]
  GI50: > 100 µM (inactive)
[7]
  GI50: > 100 µM (inactive)
[8]
  GI50: > 100 µM (inactive)
[9]
  GI50: > 100 µM (inactive)
[10]
  GI50: > 100 µM (inactive)
[11]
  GI50: > 100 µM (inactive)
[12]
  GI50: > 100 µM (inactive)
[13]
  GI50: > 100 µM (inactive)
[14]
  GI50: > 100 µM (inactive)

## CC1OC(O)CC(N(C)C)C1O.CC1OC(O)CCC1O.CCC1CC(O)c2c(O)c3c(c(O)c2C1O)C(=O)c1cccc(O)c1C3=O (stereo not given)
[1]
  GI50: 0.0301 µM (active)
[2]
  GI50: 0.0209 µM (active)
[15]
  GI50: 0.021 µM (active)
[3]
  GI50: 0.0188 µM (active)
[4]
  GI50: 0.0507 µM (active)
[16]
  GI50: 0.0266 µM (active)
[17]
  GI50: 0.0313 µM (active)
[5]
  GI50: 0.0197 µM (active)
[6]
  GI50: 0.0121 µM (active)
[7]
  GI50: 0.0301 µM (active)
[8]
  GI50: 0.023 µM (active)
[9]
  GI50: 0.0284 µM (active)
[10]
  GI50: 0.251 µM (active)
[11]
  GI50: 0.0325 µM (active)
[12]
  GI50: 0.01 µM (active)
[13]
  GI50: 0.00771 µM (active)
[14]
  GI50: 0.014 µM (active)

## COc1cc(Nc2cnc3cc(F)c(F)cc3n2)cc(OC)c1OC
[1]
  GI50: 73.6 µM (inactive)
[2]
  GI50: 69.3 µM (inactive)
[15]
  GI50: > 100 µM (inactive)
[3]
  GI50: > 100 µM (inactive)
[4]
  GI50: 63.2 µM (inactive)
[16]
  GI50: > 100 µM (inactive)
[17]
  GI50: > 100 µM (inactive)
[5]
  GI50: > 100 µM (inactive)
[6]
  GI50: 67.1 µM (inactive)
[7]
  GI50: > 100 µM (inactive)
[8]
  GI50: > 100 µM (inactive)
[9]
  GI50: > 100 µM (inactive)
[10]
  GI50: > 100 µM (inactive)
[11]
  GI50: > 100 µM (inactive)
[12]
  GI50: > 100 µM (inactive)
[13]
  GI50: > 100 µM (inactive)
[14]
  GI50: > 100 µM (inactive)

## CC(=O)N(C(C)=O)n1c(Cc2ccc(C)cc2)nn(C(C)=O)c1=O
[1]
  GI50: > 100 µM (inactive)
[2]
  GI50: > 100 µM (inactive)
[15]
  GI50: > 100 µM (inactive)
[3]
  GI50: > 100 µM (inactive)
[4]
  GI50: > 100 µM (inactive)
[16]
  GI50: > 100 µM (inactive)
[17]
  GI50: > 100 µM (inactive)
[5]
  GI50: > 100 µM (inactive)
[6]
  GI50: > 100 µM (inactive)
[7]
  GI50: > 100 µM (inactive)
[8]
  GI50: > 100 µM (inactive)
[9]
  GI50: > 100 µM (inactive)
[10]
  GI50: > 100 µM (inactive)
[11]
  GI50: > 100 µM (inactive)
[12]
  GI50: > 100 µM (inactive)
[13]
  GI50: > 100 µM (inactive)
[14]
  GI50: > 100 µM (inactive)

## CC1=CC(=O)c2ccc(C)cc2C1=O [CHIMAPHILIN]
[1]
  GI50: 5.22 µM (inactive)
[2]
  GI50: 5.96 µM (inactive)
[3]
  GI50: 16.3 µM (inactive)
[4]
  GI50: 20.5 µM (inactive)
[16]
  GI50: 6.82 µM (inactive)
[17]
  GI50: 15.9 µM (inactive)
[5]
  GI50: 8.18 µM (inactive)
[6]
  GI50: 4.09 µM (inactive)
[7]
  GI50: 16.1 µM (inactive)
[8]
  GI50: 2.49 µM (inactive)
[9]
  GI50: 2.41 µM (inactive)
[10]
  GI50: 10.4 µM (inactive)
[11]
  GI50: 3.05 µM (inactive)
[12]
  GI50: 1.85 µM (inactive)
[13]
  GI50: 4.44 µM (inactive)
[14]
  GI50: 11.8 µM (inactive)

## NCCCN(CCCCN(CCCN)C(=O)OCc1ccccc1)C(=O)OCc1ccccc1
[1]
  GI50: > 100 µM (inactive)
[2]
  GI50: > 100 µM (inactive)
[3]
  GI50: > 100 µM (inactive)
[4]
  GI50: 20.6 µM (inactive)
[16]
  GI50: > 100 µM (inactive)
[17]
  GI50: > 100 µM (inactive)
[5]
  GI50: 71.4 µM (inactive)
[6]
  GI50: 28.5 µM (inactive)
[7]
  GI50: 81.8 µM (inactive)
[8]
  GI50: > 100 µM (inactive)
[9]
  GI50: 47.9 µM (inactive)
[10]
  GI50: > 100 µM (inactive)
[11]
  GI50: 30.9 µM (inactive)
[12]
  GI50: 29.9 µM (inactive)
[13]
  GI50: > 100 µM (inactive)
[14]
  GI50: > 100 µM (inactive)

## CC(=O)OCC1(CNc2nc(N)ncc2C#N)CC(CCc2ccccc2)C1 (stereo not given)
[1]
  GI50: 2.49 µM (inactive)
[2]
  GI50: > 100 µM (inactive)
[15]
  GI50: > 100 µM (inactive)
[4]
  GI50: 23.9 µM (inactive)
[16]
  GI50: > 100 µM (inactive)
[17]
  GI50: 15.5 µM (inactive)
[5]
  GI50: 46 µM (inactive)
[6]
  GI50: 20.2 µM (inactive)
[8]
  GI50: 26.2 µM (inactive)
[9]
  GI50: 2.89 µM (inactive)
[10]
  GI50: 10.3 µM (inactive)
[11]
  GI50: 12 µM (inactive)
[12]
  GI50: 2.45 µM (inactive)
[13]
  GI50: 5.43 µM (inactive)
[14]
  GI50: > 100 µM (inactive)

## COc1ccc2c(c1)c1c(n2CCN2CCOCC2)-c2ccccc2CC1
[1]
  GI50: > 100 µM (inactive)
[2]
  GI50: 32.8 µM (inactive)
[15]
  GI50: 32.8 µM (inactive)
[3]
  GI50: 41.4 µM (inactive)
[4]
  GI50: 18.8 µM (inactive)
[16]
  GI50: 42.4 µM (inactive)
[17]
  GI50: 30.8 µM (inactive)
[5]
  GI50: > 100 µM (inactive)
[6]
  GI50: 35.4 µM (inactive)
[8]
  GI50: 34 µM (inactive)
[9]
  GI50: 17.1 µM (inactive)
[10]
  GI50: 35.5 µM (inactive)
[11]
  GI50: 30.8 µM (inactive)
[12]
  GI50: 46.8 µM (inactive)
[13]
  GI50: 33.5 µM (inactive)
[14]
  GI50: 32 µM (inactive)
